Ends that are not written are not given here.

The text below walks through data of patent publication US20210177941A1, “COMPOSITIONS FOR CHANGING BODY COMPOSITION, METHODS OF USE, AND METHODS OF TREATMENT” (Board of Supervisors of Louisiana State University and …, priority 2014, published 2021).

Series [1] can be described thus: 7-week placebo controlled study in young, healthy BL-male mice. The settings on record: for lean body mass (LBM): all treatment-arms (Gr 2-7); for bodyweight from baseline and relative to placebo control: pramlintide 30 and 60 mg/kg (Gr 3, 4), Salbutamol 24 mg (Gr 5), combinations (Gr 6, 7). It is filed as in vivo. On the procedure:
In a recent pharmacology assessment in young, healthy BL-male mice, we completed a 7-week placebo controlled (Gr 1) study with treatment-arms that included the use of pramlintide alone at low (Gr 2. 15 mg/kg); mid (Gr 3. 30 mg/kg) and high (Gr 4. 60 mg/kg) or Salbutamol alone (Gr 5. 24 mg) or combined with Pramlintide (Gr 6. 15 mg/kg +12 mg of Salbutamol; Gr 7. 30 mg/kg +12 mg of Salbutamol).

Series [2] in a line: In Vivo Study 1: body weight and body composition by NMR, 8 weeks. The arrangement: species or system B6 mice. Particulars: for muscle gain and body fat reduction: monotherapy: pramlintide 30 and 60 mg/kg/day, albuterol 24 mg/day. On the procedure: Based on our in vitro experiments, we hypothesized that we could synergize muscle gain and improved biology with a combination of low doses of amylin (or agonist) and albuterol (or agonist). This study determined the effect of daily peripheral administration of pramlintide for 2-months on body weight, body composition and food intake in healthy, elderly mice.
Murine subjects were divided into seven treatment groups (total n=12): Group 1) SC […] vehicle (PBS); Group 2) SC 15 mg/kg/mouse of pramlintide; Group 3) SC 30 mg/kg/mouse of pramlintide; Group 4) SC 60 mg/kg/mouse of pramlintide; […]); Group 6) Albuterol 0.250 mg/kg. […]
The mice were housed in single cages with a 12:12 light cycle, and allowed ad libitum access to food and water throughout the experiment. On day-1 food was weighed and an amount sufficient to last weekly intervals was provided. For the first two-weeks, food intake and body weight were monitored daily and thereafter biweekly for the remainder of the experiment. Body composition by NMR-spectroscopy was the primary endpoint, measured at Day-1 and at the end of the protocol (8-weeks). At Day-5, the mice were randomized to treatment and control groups, such that each group had the same mean body weight. Mice were allowed to acclimate for 5-days to being the sole mouse in the cage. Each day mice were dosed 1 hour after lights on, and the 2nd dosing two hours prior to lights out when mice initiate feeding. Pramlintide was taken directly from the FDA-approved Symlin drug (pramlintide acetate) obtained through the Pennington Biomedical Research Center (PBRC) pharmacy. Final injection volumes were […] for vehicle or drugs. Symlin was supplied as a sterile drug at 0.6 mg/ml. All doses were adjusted according to this concentration.
Food intake in grams was measured manually each 24 hours. Body Composition was determined via NMR using a Bruker mini-spec system designed for rat or mouse. Animals were transported in microisolater covered cages to the designated room containing the NMR. […]

Series [3] concerns IGF1R mRNA. Description: IGF1R mRNA expression in RMS13 cells. The class given is cell-based, human. The settings on record: 24 h; pramlintide 1 mm, albuterol 0.25 mm, P/A 1 mm/0.25 μm. On the procedure:
(§1) Working in concert with UPS signaling is the myostatin pathway. By binding to ActRIIB, myostatin activates type-1 activin receptor serine kinases, ALK4 or ALK5, which phosphorylate Smads 2 and −3 (key biomarkers) to exert changes in gene transcription (above figure). […] To measure pathways regulating muscle atrophy and protein syntheses, the following key mRNA biomarkers were assayed: 1) Atrophy: MSTN, Atrogin-1, MuRF1, FoxO1, FoxO3, ALK4, Smad 1, Smad 3; 2) Anabolic: IGF1R, PGC1a, PGC1b, mitochondrial-FAM.
(§2) All RMS13 cells were treated for 24 hours with single or combination doses (n=10 each group). […] However, there was a strong trend for down regulation in P/A; […] treated cells for MuRF1 (34±7 vs. 22±5, p=0.068; PBS control vs. P/A; 1 mm/0.25 μm respectively) and Smad3 (91 ±9 vs. 73±9, p=0.055; PBS control vs. P/A; 1 mm/0.25 μm respectively).

Series [4] concerns myostatin mRNA. Description: myostatin mRNA expression in RMS13 cells. The class given is cell-based, human. On the procedure: as §1, §2
Pramlintide is chiefly used as an adjunct […] in type 1 and type 2 diabetes to help manage glycemia. The action of the two hormones complements one another to better control glucose metabolism and energy balance. We investigated whether pramlintide with or without insulin could modulate myostatin (key biomarker) mRNA. […] This negative result provides important rationale for both preclinical and clinical study designs (see below). Amylin is thought to function as a neuroendocrine hormone (Young, 1997) and has been shown over many decades to have an effect of lowering food intake. When given intracerebroventricularly (icv), amyl in reduces food intake and body weight in rodents in a dose-dependent manner (Rushing et al., 2001). […] Amylin is thought to regulate energy balance by inhibiting postprandial glucagon secretion and slowing the rate of nutrient delivery to the small intestine via an effect on gastric emptying. The rate of gastric emptying also plays a major role in blood glucose homeostasis in normal subjects by controlling the delivery of carbohydrate to the small intestine and the regulation of body weight (Reda et al., 2002). It has been proposed that amylin's effect on gastric emptying may be exerted via a central mechanism involving specific binding sites in the area postrema of the brain stem (Cline et al., 2008), and that the effect is mediated by the vagus nerve rather than a direct action on the stomach and digestion (D'Este et al., 1995; Maev and Dicheva, 2003). We have previously shown that the use of modified-pharmaceutical grade cellulose is able to dramatically slow the rate of gastric emptying and improve the lean-to-fat ratio in mice (Islam et al., 2012).
Calcitonin can be used therapeutically for the treatment of hypercalcemia or osteoporosis. Both calcitonin and amylin bind the same trimetric-calcitonin-ramp-receptor. An increased incidence of pituitary adenomas has been reported in rats given synthetic salmon calcitonin for 1 year. Calcitonin may be used diagnostically as a tumor marker for medullary thyroid cancer; also, elevated levels after surgery may indicate recurrence. Calcitonin may even be assayed in biopsy samples from suspicious lesions (e.g., lymph nodes that are swollen) to establish whether they are a metastasis of the original cancer (Bruera and Fainsinger, 1997; Busquets et al., 2012b). We next examined the dose-dependence relationship between the concentration of calcitonin and myostatin mRNA expression.

For series [5], the system named is FoxO3 mRNA. Description: FoxO3 mRNA expression in RMS13 cells. It is filed as cell-based, human. The settings on record: 24 h; pramlintide 1 mm, albuterol 0.25 mm, P/A 1 mm/0.25 μm. On the procedure:
as §1, §2

The subject of series [6] is Atrogin-1, MuRF1, FoxO1, ALK4, Smad 1, Smad 3, PGC1b and TFAM mRNA. In words: myoblast transcriptome biomarker panel in RMS13 cells. The settings on record: 24 h; albuterol 0.25 mm, pramlintide 1 mm, P/A 1 mm/0.25 μm. It is filed as cell-based, human. On the procedure: as §1, §2
Series [7] has as its system PGC1a mRNA. Description: PGC1a mRNA expression in RMS13 cells. The class given is cell-based, human. Particulars: 24 h; pramlintide 1 mm, albuterol 0.25 mm, P/A 1 mm/0.25 μm. On the procedure:
as §1, §2

Series [8] relates to myostatin secretion. In words: myostatin secretion into RMS13 myoblast culture media. Particulars: pramlintide 1 mm (p=0.061); P/A 1 mm/0.25 mm (p<0.05, greatest suppression). The class given is cell-based, human. The text has this: Myostatin's main sites of actions are muscle and bone in a catabolic fashion. Both IGF1 and amylin have roles in regulating osteoblast-bone proliferation (Cornish et al., 2004; Cornish and Naot, 2002) and muscle mass. […] Although not intending to be bound by theory, we hypothesize that amylin alone and in combination with albuterol is able to directly suppress myostatin secretion in myoblasts.

For series [9], the system named is mammalian target of rapamycin (mTOR). In words: mTOR activation in human myoblast RMS13 cells. It is filed as cell-based. The settings on record: pramlintide alone at 1 and 5 mm, 24 h, both p<0.05. The text has this: We first examined the association between a pramlintide and albuterol formulation (single and combination dosing) on the activity of the mammalian target of rapamycin (mTOR) in a human myoblast cell model derived from RMS13 cells (purchased from ATCC, Manassas, Va., USA). mTOR is a highly conserved kinase that exists in two functional complexes, TOR complex 1 (TORC1) and TOR complex 2 (TORC2), that are conserved from yeast to mammals. Given its high conservation across species, mTOR serves as a key biomarker for protein synthesis. mTOR (TORC1 and TORC 2) is a master kinase that is crucial for cell growth and is a chief enzyme in protein synthesis (Otulakowski et al., 2007). Determining optimal ratios and concentrations of each drug (in single or combination) was an important first step to guide the mechanism of action biomarker studies. This initial study was undertaken for 24 and 48 hours; only the 24-hour results are shown (n=6 each group).

For series [10] the following is noted: in vivo; cited from earlier work.
Series [11] relates to human myoblast. In words: human myoblast treated 24 h with pramlintide, biomarkers. The class given is cell-based. The settings on record: 24 h pramlintide. The text has this: Although not intending to be bound by theory, we hypothesize the amylin pathway has a role in the regulation of muscle mass in mammals and the use of pramlintide will result in improved body composition and increase muscle mass in healthy humans by lowering the production of myostatin and increasing protein synthesis via mTOR activation.

Setting [12] is: 24 h, pramlintide 1 mm, albuterol 0.25 mm, P/A 1 mm/0.25 μm.
Setting [13] is: calcitonin dose-dependence, pramlintide 5 mm, p<0.05.

Take `CC(C)(C)NCC(O)c1ccc(O)c(CO)c1` (stereo not shown) [albuterol]: in [1], the “lean body mass (LBM)” value was “significantly increased”; the “bodyweight from baseline and relative to placebo control” value is reported as “significant increases in bodyweight”. In addition, in [2], the “muscle gain and body fat reduction” value was “Statistical improvements in muscle gain and body fat reduction”. The “IGF1R mRNA expression” value in series [3] was “up regulated”. Besides, the “myostatin mRNA expression” value in series [4] (setting [12]) is recorded as “no effect”. Besides, the “FoxO3 mRNA expression” value in [5] is reported as “down regulated”. The “Atrogin-1, MuRF1, FoxO1, ALK4, Smad 1, Smad 3, PGC1b and TFAM mRNA” value in series [6] is “no change”. Moreover, the “PGC1a mRNA expression” value in [7] is recorded as “up regulated”.

For the molecule “calcitonin (CGNLSTCMLGTYTQDFNKFHTFPQTAIGVGAP; ends and bridges not checked; cysteine pairing not given here; UniProt P01258 85-116, looked up)”, the “myostatin mRNA expression” value in [4] (setting [13]) is recorded as “did not modulate myostatin mRNA”.

For the molecule insulin, in series [4] (co-incubation of insulin with pramlintide), the “myostatin mRNA, pramlintide with or without insulin” value was “no additive benefit”.

pramlintide acetate: in [1], the “lean body mass (LBM)” value is “significantly increased”; the “bodyweight from baseline and relative to placebo control” value was “significant increases in bodyweight”. For the same molecule, the “muscle gain and body fat reduction” value in series [2] is “Statistical improvements in muscle gain and body fat reduction”. In addition, the “drop in body weight within the first week” value in [2] (pramlintide 60 mg/kg/day (Group 4)) was −5%. In [3], the “IGF1R mRNA expression” value is on record as “up regulated”. Moreover, the “myostatin mRNA expression” value in series [4] (setting [12]) is on record as “significantly lowered”. Also, in series [4] (setting [13]), the “myostatin mRNA expression” value is given as “able to lower myostatin mRNA”. Further, the “FoxO3 mRNA expression” value in [5] was “significantly lowered”. For the same molecule, in series [8], the “myostatin secretion into myoblast culture media” value is on record as “lowered myostatin secretion”. Moreover, the mTOR activation entry in series [9] is on record as “induced mTOR activation”. In series [10], the T-1/2-life is reported as roughly 45 min. Also, in series [11], the “myostatin and FoxO-1/-3 mRNA” value is recorded as “down regulation of myostatin”; the “pro-anabolic targets (PGC1a, calcineurin mRNA and AkT and mTOR-activity)” value was “elevation of pro-anabolic targets”. Further, in [6], the “Atrogin-1, MuRF1, FoxO1, ALK4, Smad 1, Smad 3, PGC1b and TFAM mRNA” value was “no change”. For the same molecule, the “PGC1a mRNA expression” value in series [7] is reported as “up regulated”.
